Columns and labels:
[1] = test system: GFP-FtsI expressing E. coli; assay: GFP-FtsI localization and morphology; format: cell-based; conditions: for localization of GFP-FtsI: vancomycin 34 μM, VanQAmC10 10 and 15 μM
Method: FtsI or PBP-3 is the only transpeptidase required for bacterial cell division and localizes to the septal ring.[37] It regulates the degree of cross-linking and coordinates the division process. GFP-tagged FtsI producing E. coli cells were treated with vancomycin (at 34 μM) and VanQAmC10 (at 10 μM and 15 μM; Fig. 5C) and then examined under the microscope. […] Upon treatment with 10 μM of VanQAmC10, larger phenotypes of variable sizes are observed with shape defects. Some cells appear filamentous like in the case of cephalexin. The GFP-FtsI protein appears as green fluorescent spots delocalized across the cell in 60% of the cells visualized. At a higher concentration of 15 μM, bulkier cells with more distorted shapes than those at 10 μM were observed (Fig. S5 ^†). […]
resuspended in prewarmed BMM media. 1:1 BAC light dye was then added to the bacterial suspension and incubated for 5 minutes. The fluorescence in the GFP and Texas red channels was then observed under the microscope. The experiments were performed three times independently and the images are representative of results from three independent experiments.
B. subtilis 1981 GFP-MinD was cultured overnight in BMM.8 Cells were then inoculated in xylose containing BMM instead of glucose to an OD500 of 0.1 to induce expression of the GFP-MinD fusion protein. Upon reaching an OD500 of 0.35, the cells were treated with test compounds at the PEC (vancomycin, VanQAmC10, VanQbiph) and 0.75 μg/mL (nisin) for 15 min. 0.5 μl of nonfixed, non-immobilized samples of the culture were imaged immediately in fluorescent mode (Olympus microscope with a U-LH100HGAPO burner and a U-RFL-T power supply). The experiments were performed three times independently and the images are representative of results from three independent experiments.
GFP-FtsI and GFP-FtsZ localization in E. coli […]
About 6 μl of sample was immobilized on 1% agarose pad . DIC and fluorescence images were obtained at different time intervals using Nikon Eclipse Ti Microscope equipped with Nikon DS-U3 camera through Plan Apo 100×/1.40 oil objective. […]

[2] = test system: wild-type E. coli; assay: Light microscopy of wild-type E. coli (lysis); format: cell-based; conditions: VanQAmC10 25 μM, vancomycin 34 μM (Fig. 5A)
Method: Over 240 minutes, E. coli treated with VanQAmC10 (at 25 μM), gradually grow bulky before finally lysing (ESI Video ^†). It punctured the cell, causing the cytoplasm to leak out as extrusions on the surface of the bacteria after which the cells flattened and disintegrated.
Fig. 5 Examination of E. coli cells treated with vancomycin, cephalexin and VanQAmC10 to study the effect on bacterial membrane integrity and cell division. (A) Light microscopy of wild-type E. coli upon treatment with vancomycin (34 μM), and VanQAmC10 (25 μM); (B) light and fluorescence microscopy in GFP-FtsZ expressing E. coli to assess morphological changes and localization of FtsZ post-treatment with VanQAmC10 (15 μM) for 40 min; (C) delocalization of GFP-FtsI in GFP-FtsI expressing E. coli through fluorescence microscopy and morphological changes through light microscopy upon treatment with vancomycin (34 μM), cephalexin (22 μM) and VanQAmC10 (10 μM); (D) light microscopy to assess morphological changes in E. coli MG1655 ΔamiAC mutant, when untreated and treated with vancomycin (3 μM) and VanQAmC10 (2 μM). Black arrows indicate morphological aberrations.

Row | SMILES | cells with delocalized GFP-FtsI ([1]; 10 μM) | localization of GFP-FtsI [1] | effect on E. coli cells (microscopy) [2]
1 | CCCCCCCCCCNC(=O)C[N+](C)(C)CCCNC(=O)C1NC(=O)C2NC(=O)C(NC(=O)C3NC(=O)C(CC(N)=O)NC(=O)C(NC(=O)C(CC(C)C)NC)C(O)c4ccc(c(Cl)c4)Oc4cc3cc(c4OC3OC(CO)C(O)C(O)C3OC3CC(C)(N)C(O)C(C)O3)Oc3ccc(cc3Cl)C2O)c2ccc(O)c(c2)-c2c(O)cc(O)cc21 (centres unmarked) [VanQAmC10 (8)] | 60% | mislocalizes the cell division protein, FtsI | completely lysed the cells
2 | CN[C@H](CC(C)C)C(=O)N[C@H]1C(=O)N[C@@H](CC(N)=O)C(=O)N[C@H]2C(=O)N[C@H]3C(=O)N[C@H](C(=O)N[C@H](C(=O)O)c4cc(O)cc(O)c4-c4cc3ccc4O)[C@H](O)c3ccc(c(Cl)c3)Oc3cc2cc(c3O[C@@H]2O[C@H](CO)[C@@H](O)[C@H](O)[C@H]2O[C@H]2C[C@](C)(N)[C@H](O)[C@H](C)O2)Oc2ccc(cc2Cl)[C@H]1O [Vancomycin, reference compound] |  | localization of FtsI at the septum | did not affect the cells
